Laboratory results taken from US11919893B1, “7-(4-((5-(2-bromobenzylideneamino)-2-thioxo-1,3,4-thiadiazol-3(2H)-yl)methyl) piperazin-1-yl)-1-cyclopropyl-6-fluoro-4-oxo-1,4-dihydroquinoline-3-carboxylic acid as an anti-inflammatory compound” (KING FAISAL UNIVERSITY, priority 2023, dated 2024).

Target: Bovine serum albumin (Bos taurus, UniProt P02769)
Assay: Bovine serum albumin (BSA) protein denaturation assay, in vitro anti-inflammatory activity
Type: biochemical
Description: Bovine Serum Albumin Assay (BSA) In vitro-inflammatory activities of the tested samples were determined using a modified method of the BSA assay reported by Williams et al. BSA solution (0.4%, w/v) was prepared in Tris Buffered Saline. The pH was adjusted to 6.4 with glacial acetic acid. Different dilutions of 20, 40, 60, 80, and 100 μg/mL of 7-(4-((5-(2-bromobenzylideneamino)-2-thioxo-1,3,4-thiadiazol-3(2H)-yl)methyl)piperazin-1-yl)-1-cyclopropyl-6-fluoro-4-oxo-1,4-dihydroquinoline-3-carboxylic acid (IV) the stock solutions were added to test tubes containing 1 mL of 0.4%, w/v BSA buffer solution. Both negative (solvent) and positive (aspirin) controls were assayed in a similar manner. The solutions were then heated in a water bath at 72° C. for 10 minutes and cooled for 20 minutes under laboratory conditions. The turbidity of the solutions (level of protein precipitation) was measured at 660 nm in Spectrophotometer (V-770 UV-Visible/NIR Spectrophotometer). The percentage inhibition of precipitation (protein denaturation) was determined relative to the negative control using the following equation: [formula] % Anti-Denaturation Activity=% Inhibition of Protein Denaturation=% Anti-inflammatory Activity

[1] = read-out: % Inhibition of protein denaturation (Bovine serum albumin)

Sequence of Bovine serum albumin (P02769 25-607): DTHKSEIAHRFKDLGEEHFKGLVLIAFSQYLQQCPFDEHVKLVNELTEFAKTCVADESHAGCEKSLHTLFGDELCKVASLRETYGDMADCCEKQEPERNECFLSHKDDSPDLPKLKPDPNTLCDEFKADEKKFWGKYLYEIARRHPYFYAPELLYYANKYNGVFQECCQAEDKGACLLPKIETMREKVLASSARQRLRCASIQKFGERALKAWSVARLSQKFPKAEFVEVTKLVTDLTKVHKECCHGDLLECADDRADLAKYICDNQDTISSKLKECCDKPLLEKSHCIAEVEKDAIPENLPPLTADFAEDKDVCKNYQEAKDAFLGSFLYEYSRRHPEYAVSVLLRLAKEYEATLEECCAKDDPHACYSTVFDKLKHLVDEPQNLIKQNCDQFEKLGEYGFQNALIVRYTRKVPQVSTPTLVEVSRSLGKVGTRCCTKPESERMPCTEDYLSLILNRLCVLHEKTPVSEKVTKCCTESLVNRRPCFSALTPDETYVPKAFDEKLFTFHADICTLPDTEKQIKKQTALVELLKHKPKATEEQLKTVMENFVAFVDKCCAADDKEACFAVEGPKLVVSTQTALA

In the case of O=C(O)c1cn(C2CC2)c2cc(N3CCN(Cn4nc(N=Cc5ccccc5Br)sc4=S)CC3)c(F)cc2c1=O [IV, 7-(4-((5-(2-bromobenzylideneamino)-2-thioxo-1,3,4-thiadiazol-3(2H)-yl)methyl)piperazin-1-yl)-1-cyclopropyl-6-fluoro-4-oxo-1,4-dihydroquinoline-3-carboxylic acid], the “in vitro anti-inflammatory activity (in words)” value (BSA denaturation assay) is reported as “considerable anti-inflammatory effect”, the inhibition at 20 µg/mL [1] is reported as 62.6% and the inhibition at 40 µg/mL [1] is reported as 73.1%. For the same molecule, the inhibition at 60 µg/mL [1] was 75.2%, the inhibition at 80 µg/mL [1] was 82% and the inhibition at 100 µg/mL [1] was 84.8%.
